In ChEMBL document CHEMBL4725367, “Novel anticancer Hsp90 inhibitor disubstituted pyrazolyl 2-aminopyrimidine compound 7t induces cell cycle arrest and apoptosis via mitochondrial pathway in MCF-7 cells” (Bioorg Med Chem Lett, 2020) one finds Activity and inhibition data, which are given here for one molecule.

Experiment [1] has as its target T1, Heat shock protein HSP90 (Homo sapiens) (UniProt P07900+P08238). As to the kind of experiment: Inhibition of HSP90 in human MCF7 cells assessed as cell cycle arrest by measuring accumulation at S phase at 2.5 uM measured after 24 hrs by RNaseA/propidium iodide staining based flow cytometric analysis (reference value: 7.08 %). More on the design: scale not given: the % may be the effect or the level left. On the technique in general: Flow cytometry measures light scatter and fluorescence of single cells or particles in a stream.

Experiment [2] deals with T1, Heat shock protein HSP90 (Homo sapiens). As to the kind of experiment: Inhibition of HSP90 in human MCF7 cells assessed as cell cycle arrest by measuring accumulation at G2/M phase at 5 uM measured after 24 hrs by RNaseA/propidium iodide staining based flow cytometric analysis (reference value: 25.08 %). Further details: scale not given: the % may be the effect or the level left.

Experiment [3] has the same target. The experiment is described as follows: Inhibition of HSP90 in human MCF7 cells assessed as cell cycle arrest by measuring accumulation at G0/G1 phase at 10 uM measured after 24 hrs by RNaseA/propidium iodide staining based flow cytometric analysis (reference value: 39.10 %). More on the design: scale not given: the % may be the effect or the level left.
For experiment [4] the target is unchanged. As to the kind of experiment: Inhibition of HSP90 in human MCF7 cells assessed as cell cycle arrest by measuring accumulation at Sub-G1 phase at 10 uM measured after 24 hrs by RNaseA/propidium iodide staining based flow cytometric analysis (reference value: 3.75 %). Further details: scale not given: the % may be the effect or the level left.
Experiment [5] has the same target. As to the kind of experiment: Inhibition of HSP90 in human MCF7 cells assessed as induction of morphological changes by measuring apoptotic body formation at 2.5 to 10 uM by acridine orange/ethidium bromide staining based fluorescence microscopy analysis. The experiment is classed as cell-based. The note with it: dose microM 2.5-10.
Experiment [6] has the same target. As to the kind of experiment: Inhibition of HSP90 in human MCF7 cells assessed as induction of apoptosis by measuring early apototic cells at 2.5 uM measured after 24 hrs by annexinV-FITC/propidium iodide staining based flow cytometry (reference value: 1.31 %). The experiment is classed as cell-based. More on the design: scale not given: the % may be the effect or the level left.

The target is the same in experiment [7]. The experiment is described as follows: Inhibition of HSP90 in human MCF7 cells assessed as induction of mitochondrial membrane potential loss by measuring cell population with mitochondrial membrane potential collapse at 2.5 to 10 microM after 24 hrs by JC1 staining-based flow cytometry analysis. The note with it: dose microM 2.5-10, time 24.0 hrs.
Experiment [8] shares this target. As to the kind of experiment: Inhibition of HSP90 in human MCF7 cells assessed as induction of apoptosis by measuring early apototic cells at 10 uM measured after 24 hrs by annexinV-FITC/propidium iodide staining based flow cytometry (reference value: 1.31 %). The experiment is classed as cell-based. Further details: scale not given: the % may be the effect or the level left.

Experiment [9] shares this target. The experiment is described as follows: Inhibition of HSP90 in human MCF7 cells assessed as induction of mitochondrial membrane potential loss by measuring cell population with intact mitochondrial membrane potential at 5 uM after 24 hrs by JC1 staining-based flow cytometry analysis (reference value: 92.39 %). More on the design: scale not given: the % may be the effect or the level left.

Experiment [10] has the same target. The experiment is described as follows: Inhibition of HSP90 in human MCF7 cells assessed as induction of apoptosis by measuring total apoptotic and dead cell population at 0.5 uM measured after 24 hrs by annexinV-FITC/propidium iodide staining based flow cytometry (reference value: 9.23 %). Further details: scale not given: the % may be the effect or the level left.

For experiment [11] the target is unchanged. As to the kind of experiment: Inhibition of HSP90 in human MCF7 cells assessed as induction of apoptosis by measuring necrotic cells at 10 uM measured after 24 hrs by annexinV-FITC/propidium iodide staining based flow cytometry (reference value: 0.01 %). The experiment is classed as cell-based. More on the design: scale not given: the % may be the effect or the level left.

For experiment [12] the target is unchanged. As to the kind of experiment: Inhibition of HSP90 in human MCF7 cells assessed as cell cycle arrest by measuring accumulation at Sub-G1 phase at 5 uM measured after 24 hrs by RNaseA/propidium iodide staining based flow cytometric analysis (reference value: 3.75 %). Further details: scale not given: the % may be the effect or the level left.
For experiment [13] the target is unchanged. As to the kind of experiment: Inhibition of HSP90 in human MCF7 cells assessed as induction of nuclear morphological changes by measuring horse shoe shaped nuclei formation at 2.5 to 10 uM by DAPI staining based fluorescence microscopy analysis. In kind it is cell-based. To be noted: dose microM 2.5-10.

As to `Nc1nc(-c2ccc(Br)cc2)cc(-c2cn(-c3ccc(Cl)cc3)nc2-c2ccc([N+](=O)[O-])cc2)n1`, the Activity in [1] was 7.74%; in experiment [2], 23%; in experiment [3], 25.2%; in [4] it was 23.7%; in experiment [6] it was 1.94%; in experiment [8], 4.11%. Moreover, the Activity in [9] turned out to be 75.3%; in experiment [10], 12.1%; in experiment [11], 0.12%; in [12], 16.7%. In addition, the inhibition result in experiment [5], in experiment [7] and in experiment [13] was “Dose-dependent effect” each time.
